Columns and labels:
CDK4/CyclinD1 = molecular target: T1, CDK4/CyclinD1 (Homo sapiens, UniProt P11802); test: Kinase activity assay, mobility shift assay (CDK4/CyclinD1); assay type: biochemical; conditions: Table 18; read-out: CDK4/D1 IC50
T1 construct: purchased ProQinase 0142-0143-1
Experimental: In vitro CDK kinase activity was tested using a mobility shift assay. […] A proper amount of kinase was added to the 1× kinase buffer to prepare a 2.5× enzyme solution. 5× compound dilutions (1× kinase buffer, 10% DMSO) corresponding to the test concentrations of the compounds were prepared. […] 5 µL of 5× compound dilution and 10 µL of 2.5× enzyme solution were added to reaction wells of a 384-well reaction plate. After thorough mixing, the plate was incubated at room temperature for 10 min. […] The reaction plate was incubated at 28 °C for 60 min (biochemical incubator model: SPX-100B-Z). 30 µL of stop solution was added to the 384-well reaction plate to stop the reactions, and the plate was centrifuged at 1000 rpm for 1 min.
IC50 values for the compounds were obtained by fitting using XLFit excel add-in version 5.4.0.8. Fitting formula: Y = Bottom + (Top−Bottom)/(1+((IC50/X))^(∧)HillSlope). [formula]

CDK1/CyclinB = molecular target: T2, CDK1/CyclinB (Homo sapiens, UniProt P06493); test: Kinase activity assay, ADP-Glo (CDK1/CyclinB); assay type: biochemical; conditions: Table 18; read-out: CDK1/B IC50
T2 construct: purchased proqinase 0134-0135-1
T2 sequence (P06493 whole entry): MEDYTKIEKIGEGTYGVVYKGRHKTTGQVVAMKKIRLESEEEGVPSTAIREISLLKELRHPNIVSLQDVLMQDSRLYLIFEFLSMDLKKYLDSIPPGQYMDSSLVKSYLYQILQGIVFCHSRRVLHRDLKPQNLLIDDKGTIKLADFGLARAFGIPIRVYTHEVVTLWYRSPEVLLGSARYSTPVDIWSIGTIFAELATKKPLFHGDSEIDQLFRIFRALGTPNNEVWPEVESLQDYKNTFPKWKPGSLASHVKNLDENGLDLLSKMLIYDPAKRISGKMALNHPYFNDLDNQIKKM
T2 sequence (P14635 whole entry partner): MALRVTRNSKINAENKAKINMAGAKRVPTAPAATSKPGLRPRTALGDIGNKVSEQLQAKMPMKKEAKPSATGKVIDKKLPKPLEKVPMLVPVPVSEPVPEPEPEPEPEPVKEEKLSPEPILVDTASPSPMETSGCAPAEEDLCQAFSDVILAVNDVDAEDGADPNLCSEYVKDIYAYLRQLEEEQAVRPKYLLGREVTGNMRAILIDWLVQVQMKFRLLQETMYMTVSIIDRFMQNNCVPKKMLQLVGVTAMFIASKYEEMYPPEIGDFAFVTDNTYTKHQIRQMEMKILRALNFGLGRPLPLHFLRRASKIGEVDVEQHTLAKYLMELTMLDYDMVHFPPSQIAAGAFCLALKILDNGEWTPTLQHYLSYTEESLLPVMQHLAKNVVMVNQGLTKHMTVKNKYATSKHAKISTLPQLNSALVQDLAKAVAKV

T1 sequence (P11802 whole entry): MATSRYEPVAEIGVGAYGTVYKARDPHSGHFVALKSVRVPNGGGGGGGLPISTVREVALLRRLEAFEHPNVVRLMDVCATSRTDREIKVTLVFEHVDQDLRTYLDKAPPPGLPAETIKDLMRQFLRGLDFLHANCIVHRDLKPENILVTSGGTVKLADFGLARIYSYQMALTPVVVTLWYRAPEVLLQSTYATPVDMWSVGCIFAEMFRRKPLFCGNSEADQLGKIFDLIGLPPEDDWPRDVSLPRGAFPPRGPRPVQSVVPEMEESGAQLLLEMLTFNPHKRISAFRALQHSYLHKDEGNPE
T1 sequence (P24385 whole entry partner): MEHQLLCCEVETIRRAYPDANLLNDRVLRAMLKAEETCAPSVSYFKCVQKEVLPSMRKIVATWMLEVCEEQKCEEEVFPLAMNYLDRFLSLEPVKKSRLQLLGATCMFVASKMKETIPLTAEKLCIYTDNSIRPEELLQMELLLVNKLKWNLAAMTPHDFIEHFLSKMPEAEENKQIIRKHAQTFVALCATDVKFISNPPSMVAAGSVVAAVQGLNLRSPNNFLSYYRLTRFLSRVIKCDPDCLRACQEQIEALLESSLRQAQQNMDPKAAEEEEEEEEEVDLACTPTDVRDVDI

IC50 (CDK4/CyclinD1) [nM] | IC50 (CDK1/CyclinB) [nM] | SMILES
8.2 | > 1000 | C[C@H]1COc2c(-c3nc(N[C@@H]4CCOC[C@H]4O)ncc3Cl)cc(F)c3nc(C(C)(C)O)n1c23 (single isomer, unassigned) [Isomer 1 with a retention time of 2.078 min]
14 | > 1000 | C[C@@H]1COc2c(-c3nc(N[C@@H]4CCOC[C@H]4O)ncc3Cl)cc(F)c3nc(C(C)(C)O)n1c23 (single isomer, unassigned) [Isomer 2 with a retention time of 1.887 min]

From patent publication EP4567040A1, “CRYSTAL FORM OF FUSED TRICYCLIC DERIVATIVE AND PREPARATION METHOD” (Jiangsu Hengrui Pharmaceuticals Co., Ltd., priority 2022, dated 2024)
